# Laboratory results taken from patent publication US20260184714A1, “SMALL MOLECULE MODULATORS OF PAR2 AND USES THEREOF” (PARMEDICS, INC., priority 2022, published 2026).
# Like-named read-outs stand apart in the source and are kept apart here.
# Key:
# [1] = biological target: T1, protease-activated receptor-2 (PAR2) (Homo sapiens, UniProt P55085); assay: xCELLigence real time cellular analysis (RTCA) of PAR2 antagonism; format: cell-based; details: 16HBE14o- cells; 5 min pre-incubation with 300 nM-10 μM compound, then 300 nM 2AT or 30 nM trypsin; high concentrations
# T1 construct: a human bronchial epithelial cell line that naturally expressed PAR2; endogenous in cells; host or cells: 16HBE14o- human bronchial epithelial cells
# T1 sequence (P55085 26-397): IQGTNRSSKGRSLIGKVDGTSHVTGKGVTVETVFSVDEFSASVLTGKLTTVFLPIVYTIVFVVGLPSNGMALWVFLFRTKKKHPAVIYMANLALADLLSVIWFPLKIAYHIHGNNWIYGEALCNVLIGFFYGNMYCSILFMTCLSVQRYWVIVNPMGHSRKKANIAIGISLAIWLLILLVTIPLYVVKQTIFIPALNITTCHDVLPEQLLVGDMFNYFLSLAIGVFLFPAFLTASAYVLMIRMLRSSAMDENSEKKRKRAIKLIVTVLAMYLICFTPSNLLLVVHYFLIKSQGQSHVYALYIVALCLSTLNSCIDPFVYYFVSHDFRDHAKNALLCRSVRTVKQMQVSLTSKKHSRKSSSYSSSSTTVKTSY
# Description: (§1) Compound I-1 (labelled as “C I-1” in FIGS. 1A-1D) was evaluated for its ability to antagonize protease-activated receptor-2 (PAR2) in several cellular assays using a human bronchial epithelial cell line that naturally expressed PAR2 (16HBE14o− cells; see FIG. 1A-1D).
# In the first assay to detect an in vitro physiological response, the xCELLigence real time cellular analysis (RTCA) was used.
# Following overnight growth, varying concentrations of Compound I-1 was added to individual wells (in quadruplicate) in final concentrations of 300 nM, 1 μM, 3 μM and 10 μM. […] The upward deflection and recovery of the Cell Index shown in response to control 300 nM 2AT (FIG. 1A) or 30 nM (FIG. 1B) represents a typical EC50 response.
# [2] = biological target: T1, protease-activated receptor-2 (PAR2); assay: Digital imaging microscopy of intracellular Ca2+ changes (Gq/Ca2+ signaling); format: cell-based; details: 16HBE14o- cells; [Ca2+]i by digital imaging microscopy
# Description: as §1
# (§2) It is known that two primary signaling outcomes of PAR2 activation are the initiation of Gq/Ca^2+ and β-arrestin/MAPK signaling. To determine whether the observed in vitro physiologic antagonism represented partial antagonism or intracellular signaling dependent antagonism, digital imaging microscopy was used to assay intracellular Ca^2+ changes ([Ca^2+ ]i; […]) as a measure of Gq/Ca^2+ signaling and an In Cell Western approach for measuring phosphorylation of extracellular regulated kinase ½ (ICW of pERK ½; see FIG. 1D) as an assay for β-arrestin/MAPK signaling. […] It is concluded that Compound I-1 is a β-arrestin/MAPK biased PAR2 antagonist.
# [3] = biological target: T1, protease-activated receptor-2 (PAR2); assay: In Cell Western of pERK 1/2 (β-arrestin/MAPK signaling); format: cell-based; details: 16HBE14o- cells; ICW of pERK 1/2
# Description: as §1, §2
# [4] = In vivo pharmacokinetics (plasma concentration by LC-MS/MS, non-compartmental analysis); details: mouse; for concentration at 24 h: read-out: Clast (24 h); for Cmax: read-out: Co/Cmax
# Description: Compound I-1 was evaluated for its plasma stability and oral bioavailability. Mice were fasted overnight before dosing, with water provided ad libitum throughout the study. Three animals are dosed via gavage needle for oral administration at 10 mg/kg (10 mL/kg), via tail vein injection for intravenous administration at […], and via injection in the lower right quadrant of the abdomen for intraperitoneal injections at 10 mg/kg (10 mL/kg). Blood samples (25-30 μL per sample) were taken via saphenous or submandibular vein at 5, 15, 30 min, and 1, 2, 4, 6, 8, 24 h post dose and drug concentration determined by LC-MS/MS. Plasma concentrations were then graphed vs time and pharmacokinetic parameters (terminal half life, t1/2; initial plasma concentration, Co; area under the curve (AUC); volume of distribution at steady-state. Vss; total plasma clearance CLp; mean residence time, MRT; maximum plasma concentration Cmax; time to reach Cmax, tmax; and bioavailability, F) were determined using non-compartmental analysis.
# [5] = tested on: stress-induced migraine-like pain; assay: Stress-induced migraine model, facial withdrawal response after SNP; format: in vivo, mouse; details: mice, restraint stress for 3 days, 14-day recovery, then SNP
# Description: Migraine headaches are characterized by sensitivity of pain-sensing neurons in the dura mater to innocuous stimuli, e.g., the nitric oxide donor, sodium nitroprusside (SNP). Compound I-1 was evaluated in vivo using a mouse migraine model to assess whether it can be used to treat stress-induced migraine-like pain. FIG. 2 summarizes the results for this in vivo study.
# Mice were subjected to restraint stress for 3 days (□ and ⋄ data points in FIG. 2) or left unrestrained (∘ and Δ data points in FIG. 2), resulting in a significant facial withdrawal response up to 3 days post-stress.
# [6] = tested on: airway hyperresponsiveness induced by Alternaria alternata; assay: Alternaria alternata-induced asthma model, total airway resistance to methacholine (FLEXIVENT); format: in vivo, mouse; details: mice, Alternaria alternata intranasally three times over 8 days, with Compound I-1
# Description: Alternaria alternata is a fungal allergen that activates PAR2 in the airways to promote inflammation and bronchoconstriction. Compound I-1 was evaluated in vivo to assess whether it can be used to treat airway hyperresponsiveness induced by Alternaria alternata. FIG. 3 summarizes the results for this in vivo study.
# Alternaria alternata or saline (A data points in FIG. 3) were administered intranasally in a mouse asthma model three times over an 8 day period, in the presence (Q data points in FIG. 3) or absence (o data points in FIG. 3) of Compound I-1. Total airway resistance in response to increasing amounts of methacholine was monitored using the FLEXIVENT® (Scireq, Quebec, Canada) system.
smiles,measurement,setting,value
"CC(C)C[C@@H]1C(=O)N2C(CN(CC3CCNCC3)C(=O)[C@@H]2CC(C)C)N1C(=O)c1ccco1 (stereo partly drawn) [Compound I-1, 4-(((2R,5S)-1-(furan-2-carbonyl)-2,5-diisobutyl-3,6-dioxohexahydroimidazolo [1,2-a]pyrazin-7(1H)-yl)methyl)piperidin-1-ium chloride]",Cell Index response to PAR2 activation (antagonism),[1],reduced the response
same,Antagonism at the Gq/Ca2+ signaling pathway,[2],not observed
same,Antagonism of the β-arrestin/MAPK-signaling pathway,[3],significant antagonism
same,F,"[4]; IP, 10 mg/kG",89.8%
same,F,"[4]; Oral, 10 mg/kG",84.7%
same,AUC,"[4]; plasma, IP, 10 mg/kG",2.67 µg·h/mL
same,Tmax,"[4]; plasma, IP, 10 mg/kG",0.25 h
same,half-life,"[4]; plasma, IP, 10 mg/kG",7.97 h
same,concentration at 24 h,"[4]; plasma, IP, 10 mg/kG",0.0129 µg/mL
same,Cmax,"[4]; plasma, IP, 10 mg/kG",0.689 µg/mL
same,AUC,"[4]; plasma, IV, 2 mg/kG",0.595 µg·h/mL
same,half-life,"[4]; plasma, IV, 2 mg/kG",7.9 h
same,clearance,"[4]; plasma, IV, 2 mg/kG, read-out: CLp",3.4 L/h/kg
same,concentration at 24 h,"[4]; plasma, IV, 2 mg/kG",0.00115 µg/mL
same,Cmax,"[4]; plasma, IV, 2 mg/kG",1.33 µg/mL
same,Vd,"[4]; plasma, IV, 2 mg/kG, read-out: Vss",8.29 L/kg
same,AUC,"[4]; plasma, Oral, 10 mg/kG",2.52 µg·h/mL
same,Tmax,"[4]; plasma, Oral, 10 mg/kG",0.5 h
same,half-life,"[4]; plasma, Oral, 10 mg/kG",7.45 h
same,concentration at 24 h,"[4]; plasma, Oral, 10 mg/kG",0.0114 µg/mL
same,Cmax,"[4]; plasma, Oral, 10 mg/kG",0.632 µg/mL
same,Facial withdrawal response after SNP,[5],eliminated
same,Total airway resistance in response to increasing methacholine,[6],has promise as a therapeutic for reducing allergen-induced asthma attacks
